Values quoted from earlier work in patent US7553863B2, “Ultrapure 4-methylpyrazole” (Paladin Labs (Barbados) Inc., priority 2005, dated 2009).

Columns and labels:
[1] = H. Kohno et al., Cancer Sci. 2005
[2] = Eisses, 1995
alcohol dehydrogenase = details: relative to 4-methylpyrazole; T. Li et al., Acta Chem. Scan. 1969
[3] = test system: brain levels of noradrenaline; details: in contrast to 4-methylpyrazole; E. MacDonald, Acta Pharmacol. et Toxicol. 1976

| fold less potency against alcohol dehydrogenase (alcohol dehydrogenase) | SMILES | mutagenicity and carcinogenicity [1] | teratogenicity [2] | effect on brain levels of noradrenaline [3] |
| --- | --- | --- | --- | --- |
| – | NN [Hydrazine] | known mutagens and carcinogens | – | – |
| 10 fold | c1cn[nH]c1 [Pyrazole] | – | known teratogen | detrimental effect |
